Laboratory results taken from patent US6020305A, “Treatment of stress-induced skin disease by corticotropin releasing hormone antagonists and skin mast cell degranulation inhibitors” (Kos Pharmaceuticals, Inc., priority 1996, dated 2000).
Ends that are not written are not given here.

Assays:
[1] = system: skin mast cells; assay: Effect of drug pretreatment on dye extravasation induced by CRH; format: in vivo, rat; details: for Dye Extravasation (color intensity) by CRH after drug pretreatment: drug 10^-4 M pretreatment, then CRH 10^-4 M, n = 3
Method: (§1) 1. For extravasation experiments, male Sprague/Dawley rats, each weighing approximately 350 g (Taconic Farms, Germantown, N.Y.), were anesthetized with a single intraperitoneal injection of 0.5 ml ketamine and 0.5 ml xylazine (20 mg/ml each) and then injected intravenously with 0.1 ml of 1% Evan's blue 60 min prior to treatment.
(§2) 3. The pretreatment solution, when appropriate, was drawn first in the syringe followed by CRH from which it was separated by an air bubble. The pretreatment solution was injected first and was allowed to remain in the skin for 1 min; the needle was then changed, the air bubble ejected and CRH was injected and allowed to stay in the skin for 5 min. The animal was then killed by asphyxiation over CO2 vapor and decapitated; the skin was removed, turned over and photographed.

[2] = system: skin mast cells; assay: Dye (Evan's blue) extravasation after intradermal injection; format: in vivo, rat
Method: as §1, §2

[3] = system: skin mast cells; assay: Skin mast cell degranulation at injection site, light microscopy (toluidine blue); format: in vivo, rat; details: for Mast Cell Degranulation, Deg. MC: count of degranulated mast cells
From the text: 4. In other rats, the skin was rapidly removed at the end of the injection period and was fixed in 4% paraformaldehyde for light microscopy (Theoharides et al., Int. Arch. Allergy Immunol. 102:352 (1993)), which is incorporated herein by reference in its entirety. The tissue was then frozen and thin sections (7 μ) were cut using a cryostat (Jung CM 3000, Leica, Luc. Deerfield, Ill.). The sections were stained with acidified (pH<2.5) toluidine blue (Sigma, St. Louis) and all mast cells were counted, by two different researchers blinded to the experimental conditions, at 400× magnification using a Diaphot inverted Nikon microscope (Don Santo, Mass.).

[4] = system: skin mast cells; assay: Ultrastructural analysis of CRH-treated skin mast cells; format: in vivo, rat; details: CRH-injected sites
From the text: The effect of CRH on both vasodilation and mast cell activation was dose-dependent from 10^-4 M-10^-8 M (Table 1).

[5] = system: skin mast cells; assay: Skin mast cell activation by CRH in rats treated neonatally with capsaicin; format: in vivo, rat; details: CRH 10^-4 M, neonatal capsaicin
[6] = system: pleural mast cells; assay: Histamine release from purified pleural mast cells; format: cell-based, rat
[7] = system: peritoneal mast cells; assay: Histamine release from purified peritoneal mast cells; format: cell-based, rat

## CN(C)CCC=C1c2ccccc2COc2ccccc21 [Doxepin, doxepin]
[1]
  Dye Extravasation (color intensity) by CRH after drug pretreatment: blocked the CRH effect entirely

## OCCOCCN1CCN(C(c2ccccc2)c2ccc(Cl)cc2)CC1 (stereo not drawn) [Hydroxyzine, hydroxyzine]
[1]
  Dye Extravasation (color intensity) by CRH after drug pretreatment: blocked the CRH effect entirely

## C[C@H](N)C(=O)NCC(=O)N[C@H]1CSSC[C@@H](C(=O)O)NC(=O)[C@H](CO)NC(=O)[C@H]([C@@H](C)O)NC(=O)[C@H](Cc2ccccc2)NC(=O)[C@H]([C@@H](C)O)NC(=O)[C@H](CCCCN)NC(=O)[C@H](Cc2c[nH]c3ccccc23)NC(=O)[C@H](Cc2ccccc2)NC(=O)[C@H](Cc2ccccc2)NC(=O)[C@H](CC(N)=O)NC(=O)[C@H](CCCCN)NC1=O [Somatostatin, somatostatin]
[2]; 10^-12 M
  fluid extravasation, substance alone: still apparent
[2]; alone, as strong as that seen with CRH
  fluid extravasation, substance alone: significant fluid extravasation
[1]
  Dye Extravasation (color intensity) by CRH after drug pretreatment: more dye extravasation than CRH alone

## CC(C)(C)c1ccc(C(O)CCCN2CCC(C(O)(c3ccccc3)c3ccccc3)CC2)cc1 (stereo not drawn) [Terfenadine, terfenadine]
[1]
  Dye Extravasation (color intensity) by CRH after drug pretreatment: reduced the CRH effect slightly

## Corticotropin-Releasing Hormone (SEEPPISLDLTFHLLREVLEMARAEQLAQQAHSNRKLMEII; ends and bridges not checked; UniProt P06850 154-194, looked up) [CRH, major regulator of the hypothalamic-pituitary-adrenal axis; peptide from Sigma]
[2]; 10^-4 M-10^-8 M
  dose dependence of effect on vasodilation and mast cell activation: dose-dependent
[2]; compared with equimolar C48/80 or SP
  skin vascular permeability, as evidenced by dye extravasation: marked increases
[3]; 10^-4 M
  Mast Cell Degranulation, Deg. MC: 426
[3]; 10^-5 M
  Mast Cell Degranulation, % total deg.: 37 % total
  Mast Cell Degranulation, Deg. MC: 327
[3]; 10^-6 M
  Mast Cell Degranulation, % total deg.: 42 % total
  Mast Cell Degranulation, Deg. MC: 331
[3]; 10^-7 M
  Mast Cell Degranulation, % total deg.: 37 % total
  Mast Cell Degranulation, Deg. MC: 329
[3]; 10^-8 M
  Mast Cell Degranulation, % total deg.: 32 % total
  Mast Cell Degranulation, Deg. MC: 254
[3]; 10^-9 M
  Mast Cell Degranulation, % total deg.: 28 % total
  Mast Cell Degranulation, Deg. MC: 202
[3]; 10^-10 M
  Mast Cell Degranulation, % total deg.: 26 % total
  Mast Cell Degranulation, Deg. MC: 239
[4]
  ultrastructural signs of mast cell activation (loss of electron dense granule content): obvious sign of activation
[5]
  mast cell activation in capsaicin-treated animals: unaffected
[6]; 10^-4 M
  Histamine Release (% total), Pleural + Calcium: 22.06 % total
  Histamine Release (% total), Pleural - Calcium: 34.244 % total
[6]; 10^-5 M
  Histamine Release (% total), Pleural + Calcium: 2.102 % total
  Histamine Release (% total), Pleural - Calcium: 8.579 % total
[6]; 10^-6 M
  Histamine Release (% total), Pleural + Calcium: 1.411 % total
  Histamine Release (% total), Pleural - Calcium: 4.253 % total
[6]; in words, required absence of extracellular calcium ions
  histamine release from pleural mast cells: induced histamine release
[7]; 10^-4 M
  Histamine Release (% total), Peritoneal Calcium: 25.5 % total
  Histamine Release (% total), Peritoneal + Calcium: 6.3 % total
[7]; 10^-5 M
  Histamine Release (% total), Peritoneal Calcium: 6.9 % total
  Histamine Release (% total), Peritoneal + Calcium: 1.9 % total
[7]; 10^-6 M
  Histamine Release (% total), Peritoneal Calcium: 4.9 % total
  Histamine Release (% total), Peritoneal + Calcium: 2.0 % total
[7]; in words
  effect on peritoneal mast cells (histamine release): largely ineffective

## [D-Phe^12 Nle^21,38, Ala^32 ]rCRH(12-41) [CRH-α]
[1]; antagonist 10^-4 M, CRH 10^-6 M
  inhibition of dye extravasation by CRH: could not inhibit
[1]; plasma extravasation and mast cell degranulation
  block of the effect of CRH: did not block
[3]; 10^-4 M
  Mast Cell Degranulation, % total deg.: 25 % total
  Mast Cell Degranulation, Deg. MC: 28

## substance P [SP]
[6]; 10^-4 M
  Histamine Release (% total), Pleural + Calcium: 49.346 % total
  Histamine Release (% total), Pleural - Calcium: 54.591 % total
[6]; 10^-5 M
  Histamine Release (% total), Pleural + Calcium: 22.919 % total
  Histamine Release (% total), Pleural - Calcium: 28.871 % total
[6]; 10^-6 M
  Histamine Release (% total), Pleural + Calcium: 2.088 % total
  Histamine Release (% total), Pleural - Calcium: 8.538 % total
[7]; 10^-5 M
  Histamine Release (% total), Peritoneal Calcium: 39.5 % total
